Experimental data reported in patent US11529350B2, “Tyrosine kinase non-receptor 1 (TNK1) inhibitors and uses thereof” (Sumitomo Pharma Oncology, Inc., priority 2019, dated 2022).

Legend:
Type in all cases: cell-based
[1] = tested on: phospho-STAT5 in L540 cells; experiment: In vitro pSTAT5 assay (ELISA) in L540 cells; conditions: Homo sapiens, L-540, 24 hours, normalized to cell viability, read-out: P-STAT5 Assay IC50
Protocol: The L540 cell line harbors a truncating mutation in the C-terminal regulatory region of the protein. As a consequence, TNK1 in L540 cells is constitutively active in phosphorylating key proteins, including STAT5. In TNK1 wild-type conditions (e.g., K562 CML cells), STAT5 phosphorylation is achieved in a TNK1-independent fashion. As such, reductions in phospho-STAT5 signal specific to the L540 cells are a good readout of TNK1 inhibitor function.
Methods: The in vitro pSTAT5 assay was performed with STAT5 AB (pY964/699) SimpleStep ELISA Kit (Abcam No. ab176656) according to the manufacturer's protocol. Briefly, L540 cells were grown in RPMI1640 media under standard culture conditions (10% FBS with penicillin/streptomycin). To assess test compound effects, cells were plated in 96 well plates (250,000 cells/mL) and allowed to grow overnight. Cells were subsequently treated with varying concentrations of test compound for 24 hours, before being harvested and interrogated with the STAT5 AB (pY964/699) SimpleStep ELISA Kit according to the manufacturer's protocol. Phospho-STAT5 signal was normalized to cell viability, as assessed by the CellTiter-Glo assay (Promega, Cat. No. G7570) on treated cells. TNK1 inhibitor IC50s were determined using Graphpad Prism software on normalized phospho-STAT5 measurements.

[2] = tested on: K562 cells; experiment: In-vitro cell viability assay (CellTiter-Glo), K562; conditions: Homo sapiens
Protocol: (§1) Tnk1 is known to drive proliferation and survival of Hodgkin's lymphoma (HL) cells, such as K652 and L540 cell lines (Gu et al., Identification of activated Tnk1 kinase in Hodgkin's lymphoma, Leukemia 24: 861-65 ((2010)). Downregulation of Tnk1 inhibits cell growth and proliferation, and increases apoptosis. To study the individual test compounds in the context of HL cells, CellTiter-Glo® assays (Promega, Madison, Wis.) were performed according to the manufacturer's instructions. The CellTiter-Glo® assay system uses a thermostable luciferase to generate a stable “glow-type” luminescent signal while simultaneously inhibiting endogenous enzymes released during cell lysis (e.g., ATPases). As such, the assay provides a sensitive and stable luminescent output.
(§2) Reagent Preparation • 1. The CellTiter-Glo® Buffer was thawed and equilibrated to room temperature prior to use. • 2. The lyophilized CellTiter-Glo® Substrate was equilibrated to room temperature prior to use. • 3. An appropriate volume of CellTiter-Glo® Buffer was transferred into the amber bottle containing CellTiter-Glo® Substrate according the manufacturer's recommendation. The reconstituted lyophilized enzyme/substrate mixture formed the CellTiter-Glo® Reagent. • 4. The CellTiter-Glo® Reagent was mixed by gently vortexing, swirling or inverting the contents to obtain a homogeneous solution.
(§3) Protocol for the Cell Viability Assay • 1. A titration of the K652 or L540 cells was performed to determine the optimal number and ensure that the CellTiter-Glo® Assay was performed within the linear range. • 2. Opaque-walled multiwell plates (compatible with the luminometer) were prepared with K652 or L540 cells in culture medium, 100 μl per well for 96-well plates or 25 μl per well for 384-well plates. • 3. Control wells containing medium without cells were prepared to obtain a value for background luminescence. • 4. Test compound was added to experimental wells, and incubated according to culture protocol. • 5. The plate and its contents were equilibrated at room temperature for approximately 30 minutes.
(§4) Protocol for Generating an ATP Standard Curve • 1. 1 μM ATP was prepared in culture medium (100 μl of 1 μM ATP solution contains 10^−10 moles ATP). • 2. Serial tenfold dilutions of ATP in culture medium (1 μM to 10 nM; 100 μl contains 10^−10 to 10^−12 moles of ATP) were performed. • 3. A multiwell plate with varying concentrations of ATP standard in 100 μl medium (25 μl for a 384-well plate) was prepared. • 4. A volume of CellTiter-Glo® Reagent equal to the volume of ATP standard present in each well was added. • 5. Contents were mixed for 2 minutes on an orbital shaker. • 6. The plate was allowed to incubate at room temperature for 10 minutes to stabilize the luminescent signal. • 7. Luminescence was recorded.

[3] = tested on: L540 cells; experiment: In-vitro cell viability assay (CellTiter-Glo), L540; conditions: Homo sapiens, L-540
Protocol: as §1, §2, §3, §4

Row | SMILES | IC50 [1] [nM] | IC50 [2] [µM] | IC50 [3] [µM]
1 | COc1cc(N2CCN(C)CC2)c(Cl)cc1Nc1ncc(Cl)c(Nc2cccnc2N2CCCC2=O)n1 [Example No. 13, 1-(3-((5-chloro-2-((5-chloro-2-methoxy-4-(4-methylpiperazin-1-yl)phenyl)amino)pyrimidin-4-yl)amino)pyridin-2-yl)pyrrolidin-2-one] | < 5 | 1.5 to 6 | < 0.5
2 | CN1CCN(c2c(Cl)cc(Nc3ncc(Cl)c(Nc4cccnc4N4CCCC4=O)n3)c3ccccc23)CC1 [Example No. 18, 1-(3-((5-chloro-2-((3-chloro-4-(4-methylpiperazin-1-yl)naphthalen-1-yl)amino)pyrimidin-4-yl)amino)pyridin-2-yl)pyrrolidin-2-one] | < 5 | ≥ 6 | < 0.5
3 | COc1cc(N2CCN(C)CC2)c(Cl)cc1Nc1ncc(Cl)c(Nc2cccnc2N2CCNC2=O)n1 [Example No. 21, 1-(3-((5-chloro-2-((5-chloro-2-methoxy-4-(4-methylpiperazin-1-yl)phenyl)amino)pyrimidin-4-yl)amino)pyridin-2-yl)imidazolidin-2-one] | < 5 | ≥ 6 | 1.5 to 6
4 | CN1CCN(c2ccc(Nc3ncc(Cl)c(Nc4cccnc4N4CCCC4=O)n3)cc2)CC1 [compound 1, 1-(3-((5-chloro-2-((4-(4-methylpiperazin-1-yl)phenyl)amino)pyrimidin-4-yl)amino)pyridin-2-yl)pyrrolidin-2-one] | < 5 | < 0.5 | 0.5 to 1.5
5 | COc1cc(N2CCN(C)CC2)ccc1Nc1ncc(Cl)c(Nc2cccnc2N2CCCC2=O)n1 [compound 2, 1-(3-((5-chloro-2-((2-methoxy-4-(4-methylpiperazin-1-yl)phenyl)amino)pyrimidin-4-yl)amino)pyridin-2-yl)pyrrolidin-2-one] | < 5 | 1.5 to 6 | 0.5 to 1.5
6 | CCOc1cc(N2CCN(C)CC2)ccc1Nc1ncc(Cl)c(Nc2cccnc2N(C)C)n1 [compound 3, 5-chloro-N^4-(2-(dimethylamino)pyridin-3-yl)-N^2-(2-ethoxy-4-(4-methylpiperazin-1-yl)phenyl)pyrimidine-2,4-diamine] | 5 to 50 | – | ≥ 6
7 | CC(C)Oc1cc(N2CCN(C)CC2)ccc1Nc1ncc(Cl)c(Nc2cccnc2N(C)C)n1 [compound 4, 5-chloro-N^4-(2-(dimethylamino)pyridin-3-yl)-N^2-(2-isopropoxy-4-(4-methylpiperazin-1-yl)phenyl)pyrimidine-2,4-diamine] | > 50 | 1.5 to 6 | ≥ 6
8 | CN1CCN(c2ccc(Nc3ncc(Cl)c(Nc4cccnc4N(C)C)n3)cc2)CC1 [compound 5, 5-chloro-N^4-(2-(dimethylamino)pyridin-3-yl)-N^2-(4-(4-methylpiperazin-1-yl)phenyl)pyrimidine-2,4-diamine] | < 5 | 1.5 to 6 | 0.5 to 1.5
9 | COc1cc(N2CCN(C)CC2)c(C)cc1Nc1ncc(Cl)c(Nc2cccnc2N2CCNC2=O)n1 [compound 9, 1-(3-((5-chloro-2-((2-methoxy-5-methyl-4-(4-methylpiperazin-1-yl)phenyl)amino)pyrimidin-4-yl)amino)pyridin-2-yl)imidazolidin-2-one] | < 5 | ≥ 6 | < 0.5
10 | COc1cc(N2CCN(C)CC2)c(C)cc1Nc1ncc(Br)c(Nc2cccnc2N(C)C)n1 [compound 10, 5-bromo-N^4-(2-(dimethylamino)pyridin-3-yl)-N^2-(2-methoxy-5-methyl-4-(4-methylpiperazin-1-yl)phenyl)pyrimidine-2,4-diamine] | < 5 | ≥ 6 | < 0.5
